Results on 39 molecules are retold here after patent US11447471B2, “α,β-unsaturated amide compound” (KYOWA KIRIN CO., LTD., priority 2017, dated 2022).

Broadly, the GI50 is the concentration at which growth is held to half of that of the control. Read a low GI50 as more potent growth inhibition.

The subject of the test is OVTOKO cells. As to the kind of experiment: Cell growth inhibitory effect on human ovarian cancer cell line (cell counting kit 8, 6 days). It counts as cell-based. The conditions noted are these: 144 h, 6 days incubation. The source says: NCI-H226 cells, a human mesothelioma cell line (ATCC, CRL-5826), NCI-H322 cells, a human lung cancer cell line (the European Collection of Authenticated Cell Cultures, 95111734), OUTOKO cells, a human ovarian cancer cell line (JCRB cell bank, KRB1048) and […] were each subcultured by keeping the cell density under 80% in a RPMI1640 culture medium with 10% fetal bovine serum (FBS). NCI-H226 cells, NCI-H322 cells and SSP-25 cells were each suspended in the RPMI1640 culture medium mentioned above, and plated to a 96-well flat-bottom plate at 500 cells/well in each well, and incubated at 37° C. in an incubator with 5% CO2 for one day. After the incubation, the evaluation of cell growth inhibitory activity was started. OVTOKO cells were suspended in the RPMI1640 culture medium mentioned above, and plated to a 96-well flat-bottom plate at 250 cells/well in each well, and incubated it at 37° C. in an incubator with 5% CO2 for one day. After the incubation, the evaluation of the cell growth inhibitory activity was started. The next day, a test compound was serially diluted to 5 times of its final concentration in the RPM11640 culture medium mentioned above, and the diluted solution was added to each well. In this case, the final concentration of DMSO in each well was adjusted to 0.1%. After the test compound was added, cells were incubated at 37° C. in an incubator with 5% CO2 for 6 days. At the addition of the test compound and 6 days after the addition, the cell counting measurement was performed using a cell counting kit 8 (made by DOJINDO) according to a protocol equivalent to DOJINDO's recommendation. A reagent contained in the kit was added to each plate and color reaction was performed for 2 or 3 hours at 37° C. in an incubator with 5% CO2. After the reaction, an absorbance at wavelength of 450 nm was measured using a microplate reader. A growth inhibition rate was calculated according to the following formula, from which the concentration of a test compound at which cell growth was inhibited by 50% (GI50 value) was determined.
(Formazan colour is commonly taken as a measure of viable cells.)
Regarding `C=CC(=O)NC1COc2c(Oc3ccc(C(F)(F)F)cc3)cccc2C1=O` (racemic) [Compound 40, N-[4-Oxo-8-{4-(trifluoromethyl)phenoxy}chroman-3-yl]acrylamide], the 50% growth inhibitory concentration (GI50) is ≤ 3000 nM.

Take `C=CC(=O)N[C@@H]1c2ccc(Oc3ccc(C(F)(F)F)cc3)cc2OC[C@@H]1F` (relative stereo) [Compound 21, cis-N-[3-Fluoro-7-{4-(trifluoromethyl)phenoxy}chroman-4-yl]acrylamide]: the concentration for 50% growth inhibition (GI50) was ≤ 3000 nM.

As for `C=CC(=O)N[C@@H]1c2ccc(Oc3ccc(C(F)(F)F)cc3)cc2OC[C@H]1F` (relative stereo) [Compound 22, trans-N-[3-Fluoro-7-{4-(trifluoromethyl)phenoxy}chroman-4-yl]acrylamide], the GI50 is ≤ 3000 nM.

On to `C=CC(=O)N[C@@H]1CC[C@H](Oc2ccc(C(F)(F)F)cc2)c2ncc(Cl)cc21` (relative stereo) [Compound 190, N-((5R*,8S*)-3-Chloro-8-(4-(trifluoromethyl)phenoxy)-5,6,7,8-tetrahydroquinolin-5-yl)acrylamide], for which the 50% growth inhibitory concentration (GI50) was ≤ 3000 nM.

Consider `C=CC(=O)N[C@H]1CC[C@@H](Oc2ccc(C(F)(F)F)cc2)c2nc(Cl)ccc21` (relative stereo) [Compound 241, cis-N-[2-Chloro-8-{4-(trifluoromethyl)phenoxy}-5,6,7,8-tetrahydroquinolin-5-yl]acrylamide], for which the GI50 is ≤ 3000 nM.

Take `C=CC(=O)NC1CCOc2cc(Oc3ccc(C(F)(F)F)cc3)ccc21` (stereo not drawn) [Compound 5, N-[7-{4-(trifluoromethyl)phenoxy}chroman-4-yl]acrylamide]: the GI50 was ≤ 3000 nM.

`[H]/C=C/C(=O)NC1CCOc2c1ccc(Oc1ccc(Cl)cc1)c2C` (stereo not drawn) [Compound 27, N-{7-(4-Chlorophenoxy)-8-methylchroman-4-yl}acrylamide]: the GI50 was ≤ 3000 nM.

In the case of `[H]/C=C/C(=O)NC1CCOc2c1ccc(Oc1ccc(C(F)(F)F)cc1)c2C` (stereo not drawn) [Compound 28, N-[8-Methyl-7-{4-(trifluoromethyl)phenoxy}chroman-4-yl]acrylamide], the GI50 is ≤ 3000 nM.

Consider `[H]/C=C/C(=O)NC1CCOc2c1ccc(Oc1ccc(Cl)cc1)c2OC` (stereo not drawn) [Compound 32, N-{7-(4-Chlorophenoxy)-8-methoxychroman-4-yl}acrylamide], for which the GI50 was ≤ 3000 nM.

On to `C=CC(=O)NC1COc2cccc(Oc3ccc(C(F)(F)F)cc3)c2C1` (stereo not drawn) [Compound 35, N-[5-{4-(Trifluoromethyl)phenoxy}chroman-3-yl]acrylamide], for which the GI50 was ≤ 3000 nM.

Consider `C=CC(=O)NC1COc2cc(Oc3ccc(Cl)cc3)ccc2C1` (stereo not drawn) [Compound 37, N-{7-(4-Chlorophenoxy)chroman-3-yl}acrylamide], for which the GI50 was ≤ 3000 nM.

Consider `C=CC(=O)NC1COc2c(Oc3ccc(Cl)cc3)ccc(C)c2C1` (stereo not drawn) [Compound 41, N-{8-(4-Chlorophenoxy)-5-methylchroman-3-yl}acrylamide], for which the GI50 was ≤ 3000 nM.

Take `C=CC(=O)NC1COc2c(cccc2Oc2ccc(Cl)cc2)C1` (stereo not drawn) [Compound 59, N-{8-(4-chlorophenoxy)chroman-3-yl}acrylamide]: the GI50 is ≤ 3000 nM.

Turning to `C=CC(=O)NC1COc2c(cccc2Oc2ccc(C(F)(F)F)cc2)C1` (stereo not drawn) [Compound 61, N-[8-{4-(Trifluoromethyl)phenoxy}chroman-3-yl]acrylamide], the GI50 is ≤ 3000 nM.

With `C=CC(=O)Nc1cncc(Oc2cccc(C(F)(F)F)c2)c1` [Compound 95, N-[5-{3-(Trifluoromethyl)phenoxy}pyridin-3-yl)acrylamide], the GI50 is ≤ 3000 nM.

In the case of `C=CC(=O)Nc1cncc(Oc2ccc(C(F)(F)F)cc2)c1` [Compound 96, N-[5-{4-(Trifluoromethyl)phenoxy}pyridin-3-yl]acrylamide], the GI50 was ≤ 3000 nM.

On to `C=CC(=O)Nc1cncc(Oc2ccc(OC(F)(F)F)cc2)c1` [Compound 100, N-[5-{4-(Trifluoromethoxy)phenoxy}pyridin-3-yl]acrylamide], for which the GI50 was ≤ 3000 nM.

Consider `C=CC(=O)Nc1cncc(Oc2ccc(Cl)c(Cl)c2)c1` [Compound 105, N-{5-(3,4-Dichlorophenoxy)pyridin-3-yl}acrylamide], for which the GI50 was ≤ 3000 nM.

Turning to `C=CC(=O)Nc1cncc(Oc2ccc(C(F)(F)F)c(F)c2)c1` [Compound 106, N-[5-{3-Fluoro-4-(trifluoromethyl)phenoxy}pyridin-3-yl]acrylamide], the GI50 is ≤ 3000 nM.

As to `C=CC(=O)Nc1cncc(Oc2cncc(C(F)(F)F)c2)c1` [Compound 107, N-(5-[{5-(Trifluoromethyl)pyridin-3-yl}oxy]pyridin-3-yl)acrylamide], the GI50 was ≤ 3000 nM.

Regarding `C=CC(=O)Nc1cncc(Oc2ccnc(C(F)(F)F)c2)c1` [Compound 108, N-(5-[{2-(Trifluoromethy)pyridin-4-yl}oxy]pyridin-3-yl)acrylamide], the 50% growth inhibitory concentration (GI50) is ≤ 3000 nM.

Regarding `C=CC(=O)Nc1cncc(Oc2ccc(C(F)(F)F)cn2)c1` [Compound 109, N-(5-[{5-(Trifluoromethyl)pyridin-2-yl}oxy]pyridin-3-yl)acrylamide], the GI50 was ≤ 3000 nM.

Take `C=CC(=O)Nc1ccc(Oc2ccccc2)c2ncccc12` [Compound 111, N-(8-Phenoxyquinolin-5-yl)acrylamide]: the GI50 was ≤ 3000 nM.

Regarding `C=CC(=O)Nc1ccc(Oc2ccccc2)c2nc(C)ccc12` [Compound 112, N-(2-Methyl-8-phenoxyquinolin-5-yl)acrylamide], the GI50 was ≤ 3000 nM.

With `C=CC(=O)Nc1ccc(Oc2cccc(Cl)c2)c2ncccc12` [Compound 114, N-{8-(3-Chlorophenoxy)quinolin-5-yl}acrylamide], the GI50 is ≤ 3000 nM.

With `C=CC(=O)Nc1ccc(Oc2ccc(Cl)cc2)c2nc(C)ccc12` [Compound 117, N-{8-(4-Chlorophenoxy)-2-methylquinolin-5-yl}acrylamide], the 50% growth inhibitory concentration (GI50) is ≤ 3000 nM.

For `C=CC(=O)Nc1ccc(OCC2CCC(F)(F)CC2)c2ncccc12` [Compound 126, N-[8-{(4,4-Difluorocyclohexyl)methoxy}quinolin-5-yl]acrylamide], the GI50 was ≤ 3000 nM.

For the molecule `[H]/C=C/C(=O)NCc1ccc(Oc2ccc(Cl)cc2)c2ncccc12` [Compound 134, N-[{8-(4-Chlorophenoxy)quinolin-5-yl}methyl]acrylamide], the GI50 is ≤ 3000 nM.

As for `[H]/C=C/C(=O)NCc1ccc(Oc2cccc(C(F)(F)F)c2)c2ncccc12` [Compound 137, N-([8-{3-(Trifluoromethyl)phenoxy}quinolin-5-yl]methyl)acrylamide], the 50% growth inhibitory concentration (GI50) is ≤ 3000 nM.

Consider `[H]/C=C/C(=O)NCc1ccc(Oc2ccc(C(F)(F)F)cc2)c2ncccc12` [Compound 138, N-([8-{4-(Trifluoromethyl)phenoxy}quinolin-5-yl]methyl)acrylamide], for which the GI50 is ≤ 3000 nM.

Regarding `[H]/C=C/C(=O)NCc1ccc(Oc2ccc(C(F)(F)F)nc2)c2ncccc12` [Compound 143, N-{(8-[{6-(Trifluoromethyl)pyridin-3-yl}oxy]quinolin-5-yl)methyl}acrylamide], the GI50 was ≤ 3000 nM.

In the case of `[H]/C=C/C(=O)NCc1cc(Oc2ccc(C(F)(F)F)nc2)nc2ccccc12` [Compound 149, N-{(2-[{6-(Trifluoromethyl)pyridin-3-yl}oxy]quinolin-4-yl)methyl}acrylamide], the GI50 was ≤ 3000 nM.

`[H]/C=C/C(=O)NCc1cc(Oc2ccnc(Cl)c2)nc2ccccc12` [Compound 150, N-([2-{(2-Chloropyridin-4-yl)oxy}quinolin-4-yl]methyl)acrylamide]: the 50% growth inhibitory concentration (GI50) is ≤ 3000 nM.

With `[H]/C=C/C(=O)NCc1cc(Oc2ccnc(C(F)(F)F)c2)nc2ccccc12` [Compound 151, N-{(2-[{2-(Trifluoromethyl)pyridin-4-yl}oxy]quinolin-4-yl)methyl}acrylamide], the GI50 is ≤ 3000 nM.

Turning to `C=CC(=O)NC1COc2c(cccc2Oc2cnc(C(F)(F)F)nc2)C1` (stereo not drawn) [Compound 155, N-(8-[{2-(Trifluoromethyl)pyrimidin-5-yl}oxy]chroman-3-yl)acrylamide], the GI50 is ≤ 3000 nM.

Take `C=CC(=O)NC1COc2c(cccc2Oc2cnc(C(F)(F)F)cn2)C1` (stereo not drawn) [Compound 157, N-(8-[{5-(Trifluoromethyl)pyrazin-2-yl}oxy]chroman-3-yl)acrylamide]: the GI50 was ≤ 3000 nM.

For the molecule `C=CC(=O)NC1COc2c(cc(C(F)(F)F)cc2Oc2ccc(C(F)(F)F)nc2)C1` (stereo not drawn) [Compound 162, N-{6-(Trifluoromethyl)-8-[{6-(trifluoromethyl)pyridin-3-yl}oxy]chroman-3-yl}acrylamide], the GI50 is ≤ 3000 nM.

For the molecule `C=CC(=O)NC1CCOc2c1ccc(Oc1ccc(F)c(F)c1)c2OC` (stereo not drawn) [Compound 164, N-{7-(3,4-Difluorophenoxy)-8-methoxychroman-4-yl}acrylamide], the GI50 was ≤ 3000 nM.

With `C=CC(=O)NC1CCOc2c1ccc(Oc1ccc(C(F)(F)F)nc1)c2Cl` (stereo not drawn) [Compound 168, N-(8-Chloro-7-[{6-(trifluoromethyl)pyridin-3-yl}oxy]chroman-4-yl)acrylamide], the GI50 was ≤ 3000 nM.
